Measurements published in patent US7229762B2, “Proteomic screening for redox state dependent protein—protein interactions” (Duke University Medical Center, priority 2003, dated 2007).

Experiments:
[1] = target: T1, caspase-3 interaction with iNOS / ASM (Homo sapiens, UniProt P42574); experiment: Modified yeast two-hybrid, NO-dependent growth of iNOS/caspase-3 and ASM/caspase-3 clones; type: cell-based; details: iNOS/caspase-3 clone, presence vs absence of NO
T1 construct: expressed in transfected cells; host or cells: Saccharomyces cerevisiae CG-1945 Δyhb1
T1 sequence (P42574 1-277): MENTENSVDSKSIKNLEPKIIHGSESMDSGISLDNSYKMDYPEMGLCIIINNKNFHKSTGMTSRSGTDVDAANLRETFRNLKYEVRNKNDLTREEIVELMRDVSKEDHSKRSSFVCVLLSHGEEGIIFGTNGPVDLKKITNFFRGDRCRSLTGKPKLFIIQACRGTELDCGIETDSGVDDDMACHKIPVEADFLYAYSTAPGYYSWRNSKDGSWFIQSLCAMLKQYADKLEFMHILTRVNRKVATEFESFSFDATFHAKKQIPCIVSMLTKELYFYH
Procedure: Yeast (Δyhb1) were transformed with Gal4 BD-caspase-3 plasmid (bait) and a cDNA library (Gal4 AD prey plasmids) derived from activated (NO generating) macrophages. Screening was performed as described in the methods below. DETA-NO at less than 300 μM generates NO without inhibiting yeast growth (monitored by absorbance at 600 nm). Steady state NO concentrations are maintained at ˜100 nM–1 μM range for several days as measured with an NO electrode (not shown).
Auxotrophic selection was carried out on agar plates (15 cm in diameter) enriched in 50 mM phosphate buffer (pH 7.2; His-Trp-Leu (triple)-deficient buffered medium (TDBM)). […] Prey plasmids were isolated from positive yeast clones and then re-introduced into the bait strain to confirm bait-prey interactions. Method 2: After cells were seeded on 1.5% agar they were covered with 3% low melting point agar, which in turn was layered with culture medium. NO donors (e.g. DETA-NO; 300 μM final concentration) were added to the liquid layer every 24 hours. Colonies are grown for 4 days as described in ref 9. Method 3:
Auxotrophic selection was carried out in TDBM. Transformation with the cDNA library was followed by overnight growth in medium deficient in tryptophan and leucine. Transformants were then grown for 3 days in His-deficient medium supplemented with DETA-NO (typically 200 μM final concentration). […]

AIF/MIP-1α interaction = target: T2, AIF/MIP-1α interaction (UniProt O95831+P10855); experiment: Modified yeast two-hybrid, NO-dependent growth of AIF/MIP-1α clone; type: cell-based; details: 200 μM DETA-NO, 72 hrs
T2 construct: The entire open reading frame of AIF was derived from I.M.A.G.E. clones 1520292 and 25192; expressed in transfected cells; host or cells: Saccharomyces cerevisiae Δyhb1
Procedure: Yeast (Δyhb1) were transformed with Gal4 BD-AIF (Bait) and Gal4 AD-MIP-1α (Prey). (A) Robust growth of the AIF/MIP-1α clone requires NO (single asterisk, P<0.001 versus AIF/MIP-1α without NO) (n=6). […] Cells were grown in His-Trp-Leu-deficient medium at 30° C. for 72 hrs with or without 200 μM DETA-NO. (B) β-galactosidase activities in samples shown in A (single asterisk, P<0.001 vs. without NO, n=4).
To extend the generality of our findings, 2.5 million transformants were screened from our macrophage cDNA library for NO-dependent interactions, using apoptosis-inducing factor (AIF) as bait. AIF is implicated in cell death that is independent of caspase-3, and is not known to be regulated by NO (Lipton et al., 2002). […] One of these clones contained the entire cDNA sequence of the chemokine, macrophage inflammatory protein-1 alpha (MIP-1α). Since this clone contained a few extra amino acids derived from a linker sequence, the full length MIP-1α coding sequence was amplified by PCR and cloned into the pGAD 10 vector, whose NO-dependent interaction with AIF was verified.

ASM = target: T3, ASM (Homo sapiens, UniProt P17405); experiment: ASM activity assay of purified ASM (BODIPY FL C5-sphingomyelin); type: biochemical; details: DETA-NO 50 μM–200 μM, 30 or 60 min, pH 5.0
T3 sequence (P17405 47-631): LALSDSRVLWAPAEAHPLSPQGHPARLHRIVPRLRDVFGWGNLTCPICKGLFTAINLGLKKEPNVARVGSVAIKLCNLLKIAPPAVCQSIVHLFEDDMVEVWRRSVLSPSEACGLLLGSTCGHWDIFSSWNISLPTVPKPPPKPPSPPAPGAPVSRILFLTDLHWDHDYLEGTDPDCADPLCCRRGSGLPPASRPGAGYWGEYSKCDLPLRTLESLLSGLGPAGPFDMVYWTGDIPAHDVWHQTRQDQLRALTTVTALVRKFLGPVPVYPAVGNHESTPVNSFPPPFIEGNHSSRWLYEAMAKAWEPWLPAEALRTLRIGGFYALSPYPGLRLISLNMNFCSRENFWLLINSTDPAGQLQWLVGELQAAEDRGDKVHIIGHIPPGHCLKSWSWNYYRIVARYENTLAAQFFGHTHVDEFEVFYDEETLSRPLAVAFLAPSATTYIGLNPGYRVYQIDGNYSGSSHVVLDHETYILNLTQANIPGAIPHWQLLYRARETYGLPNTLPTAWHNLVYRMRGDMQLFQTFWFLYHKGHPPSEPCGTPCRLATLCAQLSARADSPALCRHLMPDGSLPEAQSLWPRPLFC
Procedure: (§1) ASM activity was measured essentially as described (E. Romiti et al., 2000), using BODIPY FL C5-sphingomyelin substrate (1.5 nmol) in assay buffer: 250 mM sodium acetate, pH 5.0, 10 mM EDTA. To assay Zn-stimulated ASM activity, 0.1 mM ZnCl was used instead of 10 mM EDTA. 30 μl sample was incubated with 70 μl assay buffer at 37° C. for 1–3 hours. Reactions were terminated by adding 1.0 ml heptane and 0.29 ml isopropyl alcohol. Phases were separated by adding 0.23 ml H2O. The heptane phase was washed with 0.23 ml H2O. The fluorescence of the organic phase (containing BODIPY FL-ceramide) was assayed at 505/514 nm excitation/emission wavelengths (slit width=2.5).
Purified ASM protein (3.4 μg) was treated with DETA-NO (50 μM–200 μM for 30 or 60 min) and ASM activity was measured at pH 5.0 (n=3).

[2] = target: T4, caspase-3/ASM interaction (Homo sapiens, UniProt P42574); experiment: In vitro ASM/caspase-3 co-precipitation, ASM activity in caspase-3 IPs; type: binding; details: 20 μM DETA-NO 60 min, then ASM 37° C. 2 hrs
T4 sequence (P42574 29-277): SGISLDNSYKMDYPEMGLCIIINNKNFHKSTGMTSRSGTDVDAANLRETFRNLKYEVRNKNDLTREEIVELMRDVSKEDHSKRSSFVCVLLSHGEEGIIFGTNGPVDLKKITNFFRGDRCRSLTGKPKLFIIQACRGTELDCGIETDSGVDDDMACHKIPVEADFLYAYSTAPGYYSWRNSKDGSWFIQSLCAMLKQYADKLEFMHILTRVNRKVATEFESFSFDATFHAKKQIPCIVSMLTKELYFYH
T4 sequence (P17405 47-631 partner): T3 sequence (P17405 47-631)
Procedure: as §1, with “width=2.5). […]” for “width=2.5).”
Purified caspase-3 was incubated in the presence or absence 20 μM DETA-NO for 60 min (30 nM steady state NO), followed by incubation with ASM at 37° C. for 2 hrs, and IP with caspase-3 antibody. […] The interaction of caspase-3 with ASM was measured as ASM activity in caspase-3 IP's (pH 5.0). […]
To determine the relevant target(s) of NO, ASM/caspase-3 co-precipitations were carried out following NO treatment of each partner alone. Using an ASM activity assay, the amounts of ASM that could be precipitated with a procaspase-3 antibody was assessed from co-incubates (2 hours at 37° C.) of ASM (20 pmol) and caspase-3 in limiting amounts (2.5 pmol). […]

T2 sequence (O95831 102-613): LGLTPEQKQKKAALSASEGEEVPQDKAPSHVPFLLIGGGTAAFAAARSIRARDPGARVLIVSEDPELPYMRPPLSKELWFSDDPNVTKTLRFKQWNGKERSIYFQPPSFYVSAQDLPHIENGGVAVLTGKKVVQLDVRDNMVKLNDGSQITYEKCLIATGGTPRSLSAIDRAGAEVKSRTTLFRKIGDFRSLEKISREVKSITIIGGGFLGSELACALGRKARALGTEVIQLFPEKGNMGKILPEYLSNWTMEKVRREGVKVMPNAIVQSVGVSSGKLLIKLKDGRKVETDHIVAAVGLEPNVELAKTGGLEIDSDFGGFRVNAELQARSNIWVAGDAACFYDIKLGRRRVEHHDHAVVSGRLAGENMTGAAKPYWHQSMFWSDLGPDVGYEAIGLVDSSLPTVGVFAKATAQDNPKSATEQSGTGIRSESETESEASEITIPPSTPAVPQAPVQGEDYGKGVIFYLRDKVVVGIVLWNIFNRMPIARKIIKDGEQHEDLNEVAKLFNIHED
T2 sequence (P10855 24-92): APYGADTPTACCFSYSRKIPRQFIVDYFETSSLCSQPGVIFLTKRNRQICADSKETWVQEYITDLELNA

In the case of `[N]=O` [NO, nitric oxide], the “NO-dependent growth of iNOS transformant” value [1] is reported as about 9 fold, the “increase in growth in the presence of NO” value (AIF/MIP-1α interaction) is reported as 8 fold and the “effect on ASM activity” value (ASM) is reported as “no direct effect on ASM activity”. For the same compound, the “binding of ASM to caspase-3 pretreated with NO” value [2] was “induces binding of ASM”.
